Measurements from PMC3474704 (Clinical cancer research : an official journal of the …, 2012).
Like-named read-outs stand apart in the source and are kept apart here.

What was measured:
HT29 tumors = assay: HT29 xenograft growth delay, combination with irinotecan; type: in vivo, mouse; settings: for growth delay: HT29 tumors
FLT3 = FLT3 (Homo sapiens, UniProt P36888); assay: FLT3 IC50 determination; type: biochemical
CHK2 = CHK2 (Homo sapiens, UniProt O96017); assay: CHK2 IC50 determination; type: biochemical
120-140 human kinases = assay: In vitro kinase profiling at 1 and 10 μM, ATP at Km; type: biochemical
IRAK 1 = IRAK 1 (Homo sapiens, UniProt P51617); assay: Kinase profiling at 1 μM: IRAK 1; type: biochemical
TrKA = TrKA (Homo sapiens, UniProt P04629); assay: Kinase profiling at 1 μM: TrKA; type: biochemical
RSK = assay: Kinase profiling at 1 μM: RSK; type: biochemical, human
AMPK = assay: Kinase profiling at 1 μM: AMPK; type: biochemical, human
NUAK1 = NUAK1 (Homo sapiens, UniProt O60285); assay: Kinase profiling at 1 μM: NUAK1; type: biochemical
Aurora B = Aurora B (Homo sapiens, UniProt Q96GD4); assay: Kinase profiling at 1 μM: Aurora B; type: biochemical
MAP4K = assay: Kinase profiling at 1 μM: MAP4K; type: biochemical, human
CHK1 [1] = target: T1, CHK1 (Homo sapiens, UniProt O14757); assay: Kinase profiling at 1 μM: CHK1; type: biochemical
T1 sequence (O14757 1-476): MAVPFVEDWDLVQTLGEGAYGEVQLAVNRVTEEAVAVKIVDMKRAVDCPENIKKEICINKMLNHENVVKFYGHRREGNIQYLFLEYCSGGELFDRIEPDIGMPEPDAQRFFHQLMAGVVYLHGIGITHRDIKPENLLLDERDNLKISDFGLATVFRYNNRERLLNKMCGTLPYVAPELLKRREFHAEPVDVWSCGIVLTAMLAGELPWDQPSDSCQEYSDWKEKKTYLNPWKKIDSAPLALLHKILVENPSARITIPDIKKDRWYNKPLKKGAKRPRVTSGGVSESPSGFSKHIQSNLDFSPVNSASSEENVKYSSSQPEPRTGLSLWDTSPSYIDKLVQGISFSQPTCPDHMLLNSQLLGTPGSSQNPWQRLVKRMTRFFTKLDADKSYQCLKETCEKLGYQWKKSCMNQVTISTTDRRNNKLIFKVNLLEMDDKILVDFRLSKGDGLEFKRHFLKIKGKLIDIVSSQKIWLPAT

CHK1 [2] = target: T1, CHK1; assay: cell-based
CHK1 [3] = target: T1, CHK1; assay: Cell-based ELISA for G2 checkpoint abrogation
CHK1 [4] = target: T1, CHK1; assay: Cell-based ELISA for G2 checkpoint abrogation; remark: listed apart in the source
CHK1 [5] = target: T1, CHK1; assay: Cell-based ELISA for G2 checkpoint abrogation; remark: listed apart in the source
[6] = tested on: HT29 colon carcinoma cells; assay: Cell cycle analysis; type: cell-based, human
[7] = tested on: SW620 colon carcinoma cell line; assay: Cell cycle analysis; type: cell-based, human
[8] = tested on: pS296, pS317 and pS345 CHK1; assay: Western blotting of CHK1 phosphorylation biomarkers in HT29 cells; type: cell-based, human; settings: SN38, up to 5μM
[9] = Plasma pharmacokinetics in BALB/c mice; type: in vivo, mouse; settings: for AUC0-∞ / peak plasma concentration: BALB/c mice
[10] = Plasma protein binding by ultra filtration; type: in vitro ADME; settings: mouse
[11] = In vitro metabolism in male CD1 mouse microsomes; type: in vitro ADME; settings: 10 μM, 30 minutes at 37°C, NADPH and UDPGA
HT29 xenografts = assay: HT29 xenograft growth delay, combination with gemcitabine; type: in vivo, mouse
Calu6 xenografts = assay: Calu6 xenograft growth delay, combination with gemcitabine; type: in vivo, mouse; settings: for antitumor activity of each agent alone: CCT244747 75mg/kg p.o. or gemcitabine 100mg/kg i.v. alone
SW620 xenografts = assay: SW620 xenograft, combination with gemcitabine; type: in vivo, mouse; settings: 75mg/kg p.o. with gemcitabine 100mg/kg i.v.
[12] = tested on: MYCN-driven neuroblastoma; assay: Single agent activity in TH-MYCN transgenic mouse model of neuroblastoma; type: in vivo
[13] = tested on: S296 CHK1 autophosphorylation; assay: Biomarker changes in HT29 xenografts; type: in vivo, mouse; settings: 100 or 150mg/kg p.o. with gemcitabine 100mg/kg i.v., P<0.05
CDK1 [14] = target: T2, CDK1 (Homo sapiens, UniProt P06493); settings: versus CHK1
CHK1 [15] = target: T1, CHK1; settings: HT29
HT29 [16] = tested on: HT29
SW620 [17] = tested on: SW620
Calu6 [18] = tested on: Calu6
HT29 [19] = assay: cells; settings: Homo sapiens, HT-29, 96 h
SW620 [20] = assay: cells; settings: Homo sapiens, SW-620, 96 h
Calu6 [21] = assay: cells; settings: Homo sapiens, Calu-6, 96 h
[22] = tested on: four human tumor cell lines; assay: cells
recombinant human CHK1 = recombinant human CHK1 (Homo sapiens, UniProt O14757); assay: biochemical
CDK1 [23] = target: T2, CDK1; assay: biochemical
SW620 cells = assay: Contact time / scheduling study with gemcitabine in SW620
[24] = 0.5μM for 23h following etoposide 25μM × 1h
[25] = BALB/c, mouse, in vivo, po, 10 mg/kg

T2 sequence (P06493 whole entry, looked up): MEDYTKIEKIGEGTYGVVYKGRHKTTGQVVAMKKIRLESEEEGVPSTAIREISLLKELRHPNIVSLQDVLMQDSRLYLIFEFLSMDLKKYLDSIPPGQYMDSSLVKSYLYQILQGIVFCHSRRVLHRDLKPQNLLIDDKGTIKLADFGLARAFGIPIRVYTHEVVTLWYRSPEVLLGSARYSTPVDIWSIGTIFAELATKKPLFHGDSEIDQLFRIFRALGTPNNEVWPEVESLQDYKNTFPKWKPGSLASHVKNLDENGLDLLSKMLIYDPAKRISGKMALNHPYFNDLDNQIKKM
Sequence of CHK2 (O96017 whole entry): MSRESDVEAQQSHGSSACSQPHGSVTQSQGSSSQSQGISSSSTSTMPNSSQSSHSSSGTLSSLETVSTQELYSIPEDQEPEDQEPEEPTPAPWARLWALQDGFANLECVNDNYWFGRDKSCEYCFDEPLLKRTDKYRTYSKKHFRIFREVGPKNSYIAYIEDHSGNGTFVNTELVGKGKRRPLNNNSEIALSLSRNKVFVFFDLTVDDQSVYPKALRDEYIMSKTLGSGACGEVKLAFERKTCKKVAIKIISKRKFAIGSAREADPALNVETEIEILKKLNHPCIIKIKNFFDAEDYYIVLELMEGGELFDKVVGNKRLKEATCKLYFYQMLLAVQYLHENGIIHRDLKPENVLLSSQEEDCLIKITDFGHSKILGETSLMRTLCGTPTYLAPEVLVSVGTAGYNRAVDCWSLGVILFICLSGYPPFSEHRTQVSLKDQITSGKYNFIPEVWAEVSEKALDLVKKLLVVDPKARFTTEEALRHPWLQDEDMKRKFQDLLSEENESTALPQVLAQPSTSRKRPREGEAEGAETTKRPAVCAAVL
Sequence of FLT3 (P36888 27-993): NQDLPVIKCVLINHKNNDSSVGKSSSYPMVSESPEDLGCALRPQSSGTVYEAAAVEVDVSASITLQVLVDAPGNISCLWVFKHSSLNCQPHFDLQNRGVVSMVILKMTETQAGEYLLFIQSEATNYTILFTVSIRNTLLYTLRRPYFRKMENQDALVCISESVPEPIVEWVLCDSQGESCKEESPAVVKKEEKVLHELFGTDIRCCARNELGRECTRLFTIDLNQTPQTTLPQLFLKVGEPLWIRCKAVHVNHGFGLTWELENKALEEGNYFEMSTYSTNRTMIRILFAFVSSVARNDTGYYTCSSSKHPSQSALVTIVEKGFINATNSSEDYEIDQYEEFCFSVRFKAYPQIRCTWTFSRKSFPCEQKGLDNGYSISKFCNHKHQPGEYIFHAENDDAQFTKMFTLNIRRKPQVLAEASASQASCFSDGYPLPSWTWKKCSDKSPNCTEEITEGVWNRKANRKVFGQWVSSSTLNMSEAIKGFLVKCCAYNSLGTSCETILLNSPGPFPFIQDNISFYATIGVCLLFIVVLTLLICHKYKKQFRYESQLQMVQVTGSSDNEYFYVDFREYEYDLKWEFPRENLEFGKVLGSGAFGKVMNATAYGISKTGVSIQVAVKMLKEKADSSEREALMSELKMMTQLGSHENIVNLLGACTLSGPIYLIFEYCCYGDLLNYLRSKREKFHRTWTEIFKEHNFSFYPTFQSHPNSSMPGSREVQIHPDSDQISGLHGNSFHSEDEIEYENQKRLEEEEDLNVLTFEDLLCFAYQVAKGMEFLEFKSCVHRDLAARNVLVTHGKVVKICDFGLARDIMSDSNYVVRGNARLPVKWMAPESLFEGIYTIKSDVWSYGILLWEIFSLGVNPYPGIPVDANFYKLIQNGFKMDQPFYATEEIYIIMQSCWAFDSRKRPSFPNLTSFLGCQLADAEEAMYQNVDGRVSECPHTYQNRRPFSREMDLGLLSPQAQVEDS
Sequence of NUAK1 (O60285 whole entry): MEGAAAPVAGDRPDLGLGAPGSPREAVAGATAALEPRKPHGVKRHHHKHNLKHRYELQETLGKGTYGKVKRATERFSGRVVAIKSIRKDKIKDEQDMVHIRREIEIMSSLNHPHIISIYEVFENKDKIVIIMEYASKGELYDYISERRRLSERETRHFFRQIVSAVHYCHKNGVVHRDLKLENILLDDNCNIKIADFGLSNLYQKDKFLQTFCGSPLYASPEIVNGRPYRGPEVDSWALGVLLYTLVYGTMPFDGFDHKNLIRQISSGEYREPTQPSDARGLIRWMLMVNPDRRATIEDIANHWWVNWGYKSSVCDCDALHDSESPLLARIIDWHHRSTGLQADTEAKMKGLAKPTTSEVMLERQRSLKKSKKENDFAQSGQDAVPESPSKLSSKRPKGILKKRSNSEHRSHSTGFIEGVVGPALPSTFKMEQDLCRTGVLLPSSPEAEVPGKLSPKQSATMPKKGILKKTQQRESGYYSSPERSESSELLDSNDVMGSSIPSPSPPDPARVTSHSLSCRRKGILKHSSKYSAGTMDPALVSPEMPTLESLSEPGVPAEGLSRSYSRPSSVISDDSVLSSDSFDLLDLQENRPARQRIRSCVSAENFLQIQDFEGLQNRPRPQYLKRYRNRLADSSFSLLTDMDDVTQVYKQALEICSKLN
Sequence of Aurora B (Q96GD4 whole entry): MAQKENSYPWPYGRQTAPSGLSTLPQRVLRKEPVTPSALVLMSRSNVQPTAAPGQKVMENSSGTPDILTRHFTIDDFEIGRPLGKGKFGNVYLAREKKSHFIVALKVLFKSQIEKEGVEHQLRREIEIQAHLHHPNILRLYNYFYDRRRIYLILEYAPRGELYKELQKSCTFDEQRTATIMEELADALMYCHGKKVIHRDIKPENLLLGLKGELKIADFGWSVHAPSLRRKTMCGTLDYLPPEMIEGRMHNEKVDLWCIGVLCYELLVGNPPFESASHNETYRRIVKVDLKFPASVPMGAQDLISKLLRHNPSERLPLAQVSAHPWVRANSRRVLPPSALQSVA
Sequence of TrKA (P04629 33-796): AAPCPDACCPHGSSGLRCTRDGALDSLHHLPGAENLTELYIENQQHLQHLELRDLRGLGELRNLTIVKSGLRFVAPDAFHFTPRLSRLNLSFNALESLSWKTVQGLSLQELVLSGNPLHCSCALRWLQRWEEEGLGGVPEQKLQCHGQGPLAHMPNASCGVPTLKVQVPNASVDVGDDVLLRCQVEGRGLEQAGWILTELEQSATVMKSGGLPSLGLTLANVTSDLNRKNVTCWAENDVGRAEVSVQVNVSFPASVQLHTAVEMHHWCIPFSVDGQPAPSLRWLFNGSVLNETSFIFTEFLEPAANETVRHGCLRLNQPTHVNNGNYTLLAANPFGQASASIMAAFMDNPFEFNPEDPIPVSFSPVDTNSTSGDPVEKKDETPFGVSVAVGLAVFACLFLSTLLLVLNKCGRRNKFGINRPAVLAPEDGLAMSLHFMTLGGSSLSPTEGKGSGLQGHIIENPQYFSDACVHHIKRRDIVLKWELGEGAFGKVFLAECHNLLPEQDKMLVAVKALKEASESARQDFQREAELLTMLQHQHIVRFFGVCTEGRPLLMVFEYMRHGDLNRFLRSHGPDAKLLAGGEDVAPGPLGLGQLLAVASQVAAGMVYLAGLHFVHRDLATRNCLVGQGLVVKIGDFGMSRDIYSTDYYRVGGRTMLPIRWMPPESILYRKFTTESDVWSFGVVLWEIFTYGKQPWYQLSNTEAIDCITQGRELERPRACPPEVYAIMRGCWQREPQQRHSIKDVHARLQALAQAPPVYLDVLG
Sequence of IRAK 1 (P51617 whole entry): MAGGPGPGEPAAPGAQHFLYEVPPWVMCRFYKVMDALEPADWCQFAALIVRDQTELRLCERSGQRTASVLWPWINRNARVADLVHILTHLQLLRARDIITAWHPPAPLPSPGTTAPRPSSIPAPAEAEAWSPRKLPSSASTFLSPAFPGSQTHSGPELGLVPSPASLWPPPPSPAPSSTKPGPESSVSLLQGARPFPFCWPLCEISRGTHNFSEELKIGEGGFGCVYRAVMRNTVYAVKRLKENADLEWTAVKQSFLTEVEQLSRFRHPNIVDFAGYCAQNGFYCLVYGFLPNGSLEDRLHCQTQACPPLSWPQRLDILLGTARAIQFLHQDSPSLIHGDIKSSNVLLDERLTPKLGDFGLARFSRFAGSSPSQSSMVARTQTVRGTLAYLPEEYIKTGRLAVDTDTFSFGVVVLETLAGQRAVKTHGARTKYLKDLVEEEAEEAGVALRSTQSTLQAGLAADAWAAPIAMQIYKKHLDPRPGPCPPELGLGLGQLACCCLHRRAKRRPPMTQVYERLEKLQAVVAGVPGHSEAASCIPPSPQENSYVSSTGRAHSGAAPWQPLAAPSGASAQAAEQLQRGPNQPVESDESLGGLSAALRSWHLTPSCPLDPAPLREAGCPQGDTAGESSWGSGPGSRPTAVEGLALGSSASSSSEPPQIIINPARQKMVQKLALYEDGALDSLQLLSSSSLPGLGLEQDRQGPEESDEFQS

## CCc1c2c(nc3ccc(OC(=O)N4CCC(N5CCCCC5)CC4)cc13)-c1cc3c(c(=O)n1C2)COC(=O)[C@]3(O)CC [irinotecan, reference compound]
HT29 tumors; irinotecan alone 25mg/kg i.p. days 0, 4, 8
  growth delay: 6.9 days

## COc1cc(Nc2cnc(C#N)c(O[C@H](C)CN(C)C)n2)ncc1-c1cnn(C)c1 [CCT244747]
FLT3
  IC50: 0.6 µM
FLT3; versus CHK1
  selectivity against FLT3: 75 fold
CHK2
  IC50: > 10 µM
CHK2; versus CHK1
  selectivity against CHK2: more than 1,000 fold
120-140 human kinases; 1μM, panel of 140 kinases
  number of kinases with >50% inhibition: 8
120-140 human kinases; 10μM, total of 121 kinases
  number of kinases inhibited by ≥80%: 9
IRAK 1
  inhibition at 1 µM: > 50%
TrKA
  inhibition at 1 µM: > 50%
RSK
  inhibition: > 50%
AMPK
  inhibition: > 50%
NUAK1
  inhibition at 1 µM: > 50%
Aurora B
  inhibition at 1 µM: > 50%
MAP4K
  inhibition: > 50%
CHK1 [1]
  inhibition of CHK1 in kinase profiling: marked inhibition
CHK1 [2]
  IC50: 0.17 ± 0.0058 µM
CHK1 [3]
  IC50: 0.044 ± 0.01 µM
CHK1 [4]
  IC50: 0.094 ± 0.066 µM
CHK1 [5]
  IC50: 0.029 to 0.17 µM
[6]; 0.1μM with SN38 20nM × 24h
  further cells accumulating in G2/M: 33.8%
  reduction of SN38-induced S-phase arrest: 42.3%
[6]; [24]
  increase in G1: 9.6%
  loss of G2/M cells: 30%
[6]; 0.5μM for 23h following etoposide, increased from 1.2
  S' population (S-phase cells not incorporating BrdU): 17.7%
[6]; alone, up to 0.5μM × 24h
  effect alone on the cell cycle: minimal effects
[6]; increasing concentrations with SN38 20nM × 24h, increased from 5
  S'-phase cells: 42.1%
[7]; alone, up to 1μM × 24h
  effect alone on the cell cycle: minimal effects
[7]; with gemcitabine 10nM × 24h
  increase in G1: 4.4%
  increase in S'-phase: 19%
  reduction in S-phase: 28.8%
[8]
  abolition of S317 and S345 CHK1 phosphorylation: neither phosphorylation was completely abolished
[9]; 10mg/kg i.v.
  AUC0-∞: 3.93 μMh
[9]; 10mg/kg i.v., at 5 min
  peak plasma concentration: 3.62 µM
[9]; 10mg/kg oral
  AUC0-∞: 2.43 μMh
  peak plasma concentration: 0.98 µM
[9]; BALB/c, mouse, in vivo, 10 mg/kg
  clearance: 6.2 L/h/kg
[9]; BALB/c, mouse, in vivo, iv, 10 mg/kg
  half-life: 40.2 min
[9]; [25]
  bioavailability: 62%
  half-life: 55.2 min
[10]
  fraction unbound at 1 h, 10 μM: 0.244
[11]
  microsomal metabolism: 45%
HT29 xenografts; 75mg/kg p.o. added to gemcitabine 100mg/kg i.v.
  growth delay: 11.4 days
HT29 xenografts; 75mg/kg p.o. alone
  antitumor effect alone: minimal effect
HT29 xenografts; P<0.001
  difference in growth delay, combination versus gemcitabine alone: 9.1 days
HT29 xenografts; combination with gemcitabine
  body weight loss: minimal body weight loss
HT29 tumors; 150mg/kg p.o. added to irinotecan 25mg/kg i.p.
  growth delay: 13.5 days
HT29 tumors; 150mg/kg p.o. alone
  growth delay: 0.3 days
HT29 tumors; combination with irinotecan, day 10
  nadir of body weight loss: 1.3%
Calu6 xenografts; Calu6 xenografts, 75mg/kg p.o. added to gemcitabine 100mg/kg i.v.
  growth delay: 15.9 days
Calu6 xenografts; Calu6 xenografts
  antitumor activity of each agent alone: minimal activity
Calu6 xenografts; Calu6 xenografts, P<0.001
  increase in growth delay, combination versus gemcitabine alone: 8.7 days
Calu6 xenografts; combination with gemcitabine, day 8
  nadir of body weight loss: 5.4%
SW620 xenografts
  antitumor activity combined with gemcitabine: Modest activity
[12]; TH-MYCN mice, 100mg/kg p.o. × 7 days
  tolerability: well tolerated with no drug-related morbidity
[12]; TH-MYCN neuroblastoma, 100mg/kg p.o. × 7 days, P<0.001
  effect on tumor versus vehicle treated controls (final tumor weight): significant tumor shrinkage
[12]; TH-MYCN neuroblastoma, 100mg/kg p.o. × 7 days, one example tumor
  tumor volume reduction by MRI: 79%
[12]; TH-MYCN neuroblastoma, 100mg/kg p.o. × 7days, pre-treatment 1960mm^3
  post-treatment tumor volume (MRI): 417 mm^3
[13]
  effect on gemcitabine induced S296 CHK1 autophosphorylation in vivo: significantly decreased
CDK1 [14]
  selectivity against CDK1: more than 1,000 fold
CHK1 [15]
  therapeutic window (ratio of MIA and GI50): 21 fold
HT29 [16]; 5FU
  Potentiation Index (PI): 2.2±0.2 (n=3)
HT29 [16]; 5FdU
  Potentiation Index (PI): 9.6±1.2 (n=3)
HT29 [16]; CDDP
  Potentiation Index (PI): 1.8±0.32 (n=3)
HT29 [16]; Etop
  Potentiation Index (PI): 1.9±0.63 (n=4)
HT29 [16]; Gem
  Potentiation Index (PI): 8.5±1.6 (n=4)
HT29 [16]; IR +1h
  Potentiation Index (PI): 3.0±0.67 (n=4)
HT29 [16]; IR −1h
  Potentiation Index (PI): 3.9±0.32 (n=4)
HT29 [16]; SN38, SRB GI50 / Combination GI50
  Potentiation Index (PI): 1.9±0.14 (n=4)
SW620 [17]; 5FU
  Potentiation Index (PI): 4.9±0.8 (n=3)
SW620 [17]; 5FdU
  Potentiation Index (PI): 47±14 (n=3)
SW620 [17]; CDDP
  Potentiation Index (PI): 4.2±0.87 (n=3)
SW620 [17]; Etop
  Potentiation Index (PI): 4.9±2.2 (n=3)
SW620 [17]; Gem
  Potentiation Index (PI): 12.2±2.7 (n=5)
SW620 [17]; IR +1h
  Potentiation Index (PI): 4.9±1.6 (n=4)
SW620 [17]; IR −1h
  Potentiation Index (PI): 4.5±1.2 (n=4)
SW620 [17]; SN38
  Potentiation Index (PI): 2.6±0.6 (n=3)
MiaPaCa-2; Gem
  Potentiation Index (PI): 16±6.3 (n=5)
MiaPaCa-2; SN38
  Potentiation Index (PI): 5.0±0.82 (n=5)
Calu6 [18]; Gem
  Potentiation Index (PI): 5.6±0.96 (n=3)
Calu6 [18]; SN38
  Potentiation Index (PI): 1.4±0.24 (n=3)
HT29 [19]
  GI50: 0.62 ± 0.23 µM
SW620 [20]
  GI50: 3 ± 1.2 µM
Calu6 [21]
  GI50: 0.33 ± 0.051 µM
[22]
  GI50: 0.33 to 3 µM
Recombinant human CHK1
  IC50: 0.008 µM
CDK1 [23]
  IC50: > 10 µM

## C[C@H](CN(C)C)Oc1nc(Nc2cc3cccc(Cl)c3cn2)cnc1C#N [SAR-020106]
SW620 cells; exposures <24h
  enhancement of gemcitabine activity: minimal enhancement
SW620 cells; gemcitabine
  continuous exposure giving maximum potentiation of gemcitabine cytotoxicity: ≥ 48 h

## COc1cc([C@@H]2c3cc4c(cc3[C@@H](O[C@@H]3O[C@@H]5CO[C@@H](C)O[C@H]5[C@H](O)[C@H]3O)[C@H]3COC(=O)[C@H]23)OCO4)cc(OC)c1O [etoposide, reference compound]
[6]; etoposide 25μM × 1h, measured at 24h
  cells in G2/M: 70.5%

## Nc1ccn([C@@H]2O[C@H](CO)[C@@H](O)C2(F)F)c(=O)n1 [gemcitabine, reference compound]
HT29 xenografts; gemcitabine alone 100mg/kg i.v. days 0, 7, 14
  growth delay: 2.3 days
Calu6 xenografts; Calu6 xenografts
  antitumor activity of each agent alone: minimal activity
